Values quoted from earlier work, collected in patent US20230330115A1 (priority 2022, published 2023).
“Also recorded” adds a separate entry of the source.

Key:
CB1 = CB1 (Homo sapiens, UniProt P21554); settings: read-out: Functional Activity CB1
CB1 receptor = settings: read-out: Binding Affinity CB1
CB2 [1] = biological target: T1, CB2 (Homo sapiens, UniProt P34972); settings: read-out: Binding Affinity CB2
CB2 [2] = biological target: T1, CB2; settings: read-out: Functional Activity CB2
rodents = rodents administered THCB

T1 sequence (P34972 whole entry): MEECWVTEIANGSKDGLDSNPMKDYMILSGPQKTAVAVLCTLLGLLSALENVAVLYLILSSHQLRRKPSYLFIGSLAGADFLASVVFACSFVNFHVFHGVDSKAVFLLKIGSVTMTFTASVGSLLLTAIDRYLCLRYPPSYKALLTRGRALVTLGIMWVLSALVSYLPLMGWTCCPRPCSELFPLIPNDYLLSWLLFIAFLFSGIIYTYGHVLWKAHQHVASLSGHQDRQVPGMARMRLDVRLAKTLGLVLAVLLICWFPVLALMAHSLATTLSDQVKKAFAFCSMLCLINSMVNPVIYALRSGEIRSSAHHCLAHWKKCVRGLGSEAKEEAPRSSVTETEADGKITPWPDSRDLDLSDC
CB1, sequence (P21554 whole entry): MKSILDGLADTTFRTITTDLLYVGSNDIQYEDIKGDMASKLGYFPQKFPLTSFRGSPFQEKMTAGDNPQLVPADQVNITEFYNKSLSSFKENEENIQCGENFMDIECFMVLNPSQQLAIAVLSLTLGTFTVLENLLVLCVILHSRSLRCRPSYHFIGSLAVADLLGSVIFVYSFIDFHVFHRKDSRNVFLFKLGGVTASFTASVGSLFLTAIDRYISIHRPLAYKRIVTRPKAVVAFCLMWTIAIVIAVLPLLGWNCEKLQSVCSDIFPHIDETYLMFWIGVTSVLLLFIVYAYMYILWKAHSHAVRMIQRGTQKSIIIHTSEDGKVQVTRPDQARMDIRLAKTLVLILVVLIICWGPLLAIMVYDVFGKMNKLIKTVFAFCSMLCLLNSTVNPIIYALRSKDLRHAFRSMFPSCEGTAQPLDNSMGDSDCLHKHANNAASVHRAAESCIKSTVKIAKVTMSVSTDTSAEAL

Compound | EC50 (CB1) | Ki (CB1 receptor) | Ki (CB2 [1]) | EC50 (CB2 [2]) | also measured
CCCCCc1cc(O)c2c(c1)OC(C)(C)c1ccc(C)cc1-2 [CBN, Cannabinol] | 307 ± 39 nM | 368 ± 121 nM | 168 ± 32 nM | 289 ± 38 nM | 
CCCCCCCc1cc(O)c2c(c1)OC(C)(C)[C@@H]1CCC(C)=C[C@@H]21 (relative stereo) [THCP, (—)trans-delta-9-tetrahydrocannabiphorol] |  | 1.2 nM |  |  | hypothermia, dose dependence (mice; 5 mg/Kg vs 10 mg/Kg): does appear to increase at higher doses; potency at CB1 relative to THC (mice; Tetrad Test in mice, even at low doses (5 mg/kg of body weight)): about 30 times; effects in mice (Tetrad Test criteria) (mice; mice): hypomotility, analgesia, catalepsy and decreased rectal temperature; dose dependence of the effects (mice; mice, increasing dose (5 mg/Kg vs 10 mg/Kg)): do not appear to increase as the dose increases
CCCCCc1cc(O)c2c(c1)OC(C)(C)[C@@H]1CCC(CO)=C[C@@H]21 [11-Hydroxy, 11-OH-delta-9-tetrahydrocannabinol] | < 200 nM | < 200 nM |  |  | 
CCCCc1cc(O)c2c(c1)OC(C)(C)[C@@H]1CCC(C)=C[C@@H]21 (relative stereo) [THCB, (—)trans-delta-9-tetrahydrocannabibutol] |  | 15 nM |  |  | catalepsy, analgesia, hypolocomotion (mice; first phase (10 mg/kg)): no significant catalepsy, analgesia, or hypolocomotion; also recorded: no significant catalepsy, analgesia, or hypo locomotion; hypothermic effect (decrease) (mice; first phase (10 mg/kg)): less than 0.5 °C; activity type corroborated by Tetrad Test (mice; mice): CB1 partial agonistic activity; catalepsy and analgesia (mice; second phase (20 mg/kg)): significant direct effect on catalepsy and analgesia; also recorded: very significant catalepsy and analgesia effect; hypolocomotion (mice; second phase (20 mg/kg)): slight direct effect on hypolocomotion; hypothermic effect (mice; second phase (20 mg/kg)): appears to reverse; also recorded: reversal in the second phase; formalin test outcome (rodents): possible analgesic and anti-inflammatory properties
C=C(C)[C@@H]1CCC(C)=C[C@H]1c1c(O)cc(CCC)cc1O [CBDV, Cannabidivarin] | > 10000 nM | 503 ± 58 nM | 3970 nM | 3 ± 8 nM | 
CCCCCc1cc2c(c(O)c1C(=O)O)[C@@H]1C=C(C)CC[C@H]1C(C)(C)O2 (relative stereo) [THCA, (—)trans-delta-9-tetrahydrocannabinolic acid] | > 10000 nM | 1290 nM | 1650 nM | > 10000 nM | 
CCCc1cc(O)c2c(c1)OC(C)(C)[C@@H]1CCC(C)=C[C@@H]21 (single isomer, unassigned) [THCV, (—)trans-delta-9-tetrahydrocannabivarin] | > 10000 nM | 22 ± 5 nM | 105 ± 21 nM | > 10000 nM | 
CCCCCc1cc(O)c(C/C=C(\C)CCC=C(C)C)c(O)c1 [CBG, Cannabigerol] | > 10000 nM | 440 nM |  | 1160 nM | 
Cannabichromanone D [CBCN D] | 8 ± 0.9 nM | 7120 nM | 2830 nM | 3940 nM | 
CCCCCc1cc(O)c(C/C=C(\C)CCC=C(C)C)c(O)c1C(=O)O [CBGA, Cannabigerolic acid] | 182 ± 32 nM | 4530 nM | > 10000 nM | 118 ± 27 nM | 
